From ChEMBL document CHEMBL5038601, “Carbohydrate-Based NK1R Antagonists with Broad-Spectrum Anticancer Activity” (J Med Chem, 2021)
The source made the active and inactive calls. The rule behind the calls is not given here.

Tests used:
[1] = system: A549; test: Inhibition of glycolysis in human A549 cells assessed as reduction in glucose consumption incubated for 8 hrs by colorimetric-oxidase mediator analysis; type: functional, cell-based
[2] = system: A549; test: Inhibition of glycolysis in human A549 cells assessed as reduction in lactate production incubated for 8 hrs by colorimetric-oxidase mediator analysis; type: functional, cell-based

## O=C(O)C(Cl)Cl
[1]
  inhibition: Active
[2]
  inhibition: Active
